Source: patent US9233913B2, “Amino acid derivatives for the treatment of neuropathic pain” (priority 2009, dated 2016)
Where two headings read alike, the source gives them in different places.

Legend:
Gabapentin binding site [1] = target: T1, Gabapentin binding site (Rattus norvegicus, UniProt P54290); assay: [3H]-gabapentin binding assay, Method 2 (crude rat brain membranes); settings: 20 nM [3H]-gabapentin; for % inhibition 1 μM: compound 1 μM; for % inhibition 10 μM: compound 10 μM
Protocol: Membrane preparation: cortices from 5 rats were homogenized in a 0.32 M sucrose solution containing 10 mM HEPES/KOH. Suspensions were centrifuged for 10 minutes at 2500×g and the supernatants were centrifuged at 48000×g for 20 minutes. […] The final pellets were re-suspended in 10 mM HEPES/KOH. Protein concentration was determined using a BCA kit from Pierce (Rockford, Ill.). The quality of the preparation was assessed in a binding assay to gabapentin.
Binding assay: in 96-well plates, the selected compounds were incubated in 10 mM HEPES/KOH pH 7.4 at concentrations of 10 and 1 μM for 30 minutes at room temperature in the presence of 20 nM [^3H]-gabapentin and rat brain membranes (300 μg/mL of proteins). Radioactivity was assessed after filtration with the Tomtec cell harvester using a glass fiber filter A. Counts were obtained using the Microbeat Trilux counter.
[formula] wherein: [total binding]s is the total binding of [^3H]-gabapentin in the presence of the compound; [non-specific binding]c is the non specific binding of [^3H]-gabapentin in the presence of 100 μM cold gabapentin (c=control); and [total binding]c is the total binding of [^3H]-gabapentin alone.

Gabapentin binding site [2] = target: T1, Gabapentin binding site; settings: Method 1, rat brain membranes, 3H-gabapentin; for % inhibition 1 μM: compound 1 μM; for % inhibition 10 μM: compound 10 μM
Protocol: Materials: Gabapentin is from TRC, [^3H]-Gabapentin is from GE Healthcare, and Meltilex A sheets (melt-on scintillator sheets) are from Perkin Elmer. Rat brain membranes are prepared in-house by conventional methods.
All solutions are prepared for the assay just before use, except for the membrane dilution. […] The final compound concentration in the assay is 1, 10 and 100 μM. The same is done with a solution not containing the test articles as control. The test plate is then incubated for 30 minutes at room temperature with agitation. The binding reaction is terminated using a Tomtec cell harvester machine (Mach III M-FP-1). A meltilex sheet is placed on the filtermat (harvest from the assay) and is allowed to melt in the oven at 65° C. for 1 to 4 min. The filter is inserted in the plastic pouch, which is sealed and allowed to cool for 1 h before counting with a Microbeta Trilux counter (Perkin Elmer).
Results are calculated using the count per minutes (CPM) obtained for each sample with the Trilux. The CPM obtained for the control diluent represents the 100% binding of ^3H-Gabapentin to membrane. The CPM obtained for the control gabapentin 100 μM represents the 0% binding. The % of binding for each compound is calculated by the formula: […]

[3] = test system: Diet-Induced Obesity (DIO) mouse model; assay: Diet-Induced Obesity (DIO) mouse model: glycemia, insulin, body weight; format: in vivo; settings: DIO mice; 100 mg/kg BID oral gavage, 7 days
Protocol: The objective of this study is to determine the effect of the compounds of the invention, namely Compounds 6A, 6B and 18, glycemia, insulin and body weight gain in a Diet-Induced Obesity (DIO) mouse model. Results are compared with (2S,3R,4S)-4-hydroisoleucine (positive control) and vehicle (negative control).
C57BL/6 mice are tested at 17-18 weeks of age and fed a high fat diet (60% of calories from fat) for 8 weeks. Fasted glycemia and body weight values are used to randomize the mice into control and treatment groups (n=8). The animals are treated twice dally (BID) (once on 7th day) by oral gavage with 4-hydroxyisoleucine, Compounds 6A, 6B and 18 (100 mg per kg of body weight), and the control group receive vehicle (water) alone. The animals are treated for 7 days.
Oral glucose Tolerance Test (OGTT) is performed at 5 hours±30 minutes Post starvation (day 0 only) or Post AM test article administration (for day 7). Blood samples are collected via tail vein for glucose determination prior to glucose challenge (Pre-OGTT) and at 5, 10, 20, 30, 60, 90 and 120 minutes post-glucose administration. Glucose determination is perfomed using a hand held glucometer (Model OneTouch Ultra, LifeScan).
A second blood sample is also collected Pre-OGTT and at 5, 10, 60 and 120 minutes Post-OGTT for insulin determination. Insulin determination is done using an enzyme Immunoassay kit (Mecodia Ultrasensitive Mouse Insulin ELISA, ALPCO Diagnostics, Wndham, N.H.).
Body weight of the mice is measured at arrival, randomization, and on days 0, 3 and 7 of treatment. At the end of the study, the epididymal fat pads were isolated and weighed. Data are expressed as mean±SEM of body weight and mean±SEM of fat pad weight.

[4] = Pharmacokinetic profile in mice; format: in vivo; settings: mouse, plasma, read-out: Bioavailability (% F)
Protocol: Compounds are tested for pharmacokinetic profile, including oral bioavailability in mice using the following procedure. Bioavailability estimates are performed after administration of 100 mg/kg of Compound 6B and 50 mg/kg of Compound 18 either Intravenously (IV) or orally (PO). Four animals per time point, per mode of administration are used. At each specific time point following drug administration, a blood sample is collected terminally (under isoflurane anesthesia) via cardiac puncture from each the 4 animals. Samples are collected at pre-dose and at 5, 15, 30, and 60 minutes and at 2, 4, 6, 8, 14 and 24 hours post oral administration and at pre-dose and 2, 5, 15, 30, and 60 minutes and 2, 4, 8, 14 and 24 hours post intravenous administration. Blood samples are collected into tubes containing K3-EDTA as anticoagulant, kept on ice until centrifugation at 4° C. at a minimum speed of 3000 rpm (1620G) for 10 min. Plasma samples are harvested into polypropylene tubes, immediately placed on dry ice and stored at −80° C.
Compounds in mouse plasma are extracted using protein precipitation. Quantitation of the compounds in mouse plasma matrix is achieved using LC-MS detection. Sample concentration is calculated using a calibration curve. FIGS. 3A and 3B show mouse PK curves in log scale for Compounds 6B and 18 respectively. […]

[5] = test system: metrazole-induced clonic convulsions and mortality; assay: Metrazole-induced convulsions model; settings: metrazole 100 mg/kg, 100% = score 9
[6] = Pharmacokinetic profile in dogs; format: in vivo; settings: one female Beagle dog
Protocol: The pharmacokinetic profile of Compound 18 is evaluated in one female Beagle dog. One single oral and one single IV dose of 25 mg/kg separated by a wash-out period are administered to the dog to get key preliminary information about the pharmacokinetics and oral bioavailability of Compound 18.

T1 sequence (P54290 25-1091): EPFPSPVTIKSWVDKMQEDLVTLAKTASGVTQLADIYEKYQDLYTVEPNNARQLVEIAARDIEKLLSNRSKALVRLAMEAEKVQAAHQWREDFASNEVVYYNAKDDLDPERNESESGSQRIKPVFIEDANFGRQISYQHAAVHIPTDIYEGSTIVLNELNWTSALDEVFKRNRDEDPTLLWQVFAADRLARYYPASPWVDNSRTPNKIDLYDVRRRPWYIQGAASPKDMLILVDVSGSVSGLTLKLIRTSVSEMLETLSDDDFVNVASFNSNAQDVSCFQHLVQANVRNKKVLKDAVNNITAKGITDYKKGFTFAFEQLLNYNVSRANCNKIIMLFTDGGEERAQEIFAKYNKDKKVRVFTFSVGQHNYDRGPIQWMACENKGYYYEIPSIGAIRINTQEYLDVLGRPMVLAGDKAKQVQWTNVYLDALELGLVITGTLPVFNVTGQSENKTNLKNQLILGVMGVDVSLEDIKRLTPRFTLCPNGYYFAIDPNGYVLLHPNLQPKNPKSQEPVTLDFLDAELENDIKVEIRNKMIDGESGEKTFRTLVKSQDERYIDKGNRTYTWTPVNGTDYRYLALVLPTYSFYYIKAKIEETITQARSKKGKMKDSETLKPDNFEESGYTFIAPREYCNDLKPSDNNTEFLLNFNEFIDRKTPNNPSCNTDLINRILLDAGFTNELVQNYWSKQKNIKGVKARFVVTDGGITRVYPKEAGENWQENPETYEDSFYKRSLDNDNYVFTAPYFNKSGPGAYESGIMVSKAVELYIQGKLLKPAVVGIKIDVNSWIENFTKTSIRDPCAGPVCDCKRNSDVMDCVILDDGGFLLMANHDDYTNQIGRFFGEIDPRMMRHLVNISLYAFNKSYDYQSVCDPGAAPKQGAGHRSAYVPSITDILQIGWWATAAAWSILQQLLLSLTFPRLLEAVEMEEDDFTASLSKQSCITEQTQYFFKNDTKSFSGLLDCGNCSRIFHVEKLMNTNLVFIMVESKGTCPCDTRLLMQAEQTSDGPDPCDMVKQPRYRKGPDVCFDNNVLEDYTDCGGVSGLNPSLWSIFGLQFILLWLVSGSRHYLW

SMILES	% inhibition 1 μM (Gabapentin binding site [1])	% inhibition 10 μM (Gabapentin binding site [1])	% inhibition 1 μM (Gabapentin binding site [2]) [%]	% inhibition 10 μM (Gabapentin binding site [2]) [%]	effect on glycemia compared to control [3]	also measured
N[C@@H](Cc1ccco1)C(=O)O [(2S)-Compound, (2S)-3-(2-furyl)alanine]	61% (±8)	16% (±3)	–	–	–	–
C[C@@H]([C@H](C)O)[C@H](N)C(=O)O [Compound 4-HO-Ile, (2S,3R,4S) 4-hydroxyisoleucine, reference compound]	–	–	13	51	–	–
N[C@@H](CC1CCCO1)C(=O)O (stereo partly shown) [Compound 6]	–	–	82	92	–	–
N[C@@H](C[C@H]1CCCO1)C(=O)O [Compound 7]	19% (±4)	1% (±1)	–	–	neutral or beneficial effect	effect on insulin compared to control [3]: neutral or beneficial effect
N[C@@H](C[C@@H]1CCCO1)C(=O)O [Compound 8]	11% (±1)	0% (±2)	–	–	neutral or beneficial effect	bioavailability ([4]; 100 mg/kg IV or PO): ~100%; effect on insulin compared to control [3]: neutral or beneficial effect
N[C@H](C(=O)O)[C@@H]1CCCC[C@H]1O [Compound 18]	21% (±3)	6% (±1)	87	90	no effect	bioavailability ([4]; 50 mg/kg IV or PO): 88.4%; % Prevention of convulsions in mice ([5]; dose 200 mg/kg): 67%; bioavailability ([6]; in vivo, 25 mg/kg oral and IV): 97%; absorption following oral administration ([6]; 25 mg/kg oral): rapidly and very well absorbed; first pass effect ([6]; 25 mg/kg oral): does not demonstrate any significant first pass effect; terminal half live ([6]; 25 mg/kg single dose): around 7 hours
CN1C(=O)CN=C(c2ccccc2)c2cc(Cl)ccc21 [Diazepam, diazepam]	–	–	–	–	–	% Prevention of convulsions in mice ([5]; dose 1 mg/kg): 67%
NCC1(CC(=O)O)CCCCC1 [Gabapentin]	–	–	–	–	–	% Prevention of convulsions in mice ([5]; dose 100 mg/kg): 67%
